Key:
[1] = target: T1, human A1 adenosine receptor (hA1AR) (Homo sapiens, UniProt P30542); conditions: at 10 μM; [3H]36; CHO cells expressing hA1AR; ref Tosh et al.[9]; cited from earlier work
T1 sequence (P30542 1-326): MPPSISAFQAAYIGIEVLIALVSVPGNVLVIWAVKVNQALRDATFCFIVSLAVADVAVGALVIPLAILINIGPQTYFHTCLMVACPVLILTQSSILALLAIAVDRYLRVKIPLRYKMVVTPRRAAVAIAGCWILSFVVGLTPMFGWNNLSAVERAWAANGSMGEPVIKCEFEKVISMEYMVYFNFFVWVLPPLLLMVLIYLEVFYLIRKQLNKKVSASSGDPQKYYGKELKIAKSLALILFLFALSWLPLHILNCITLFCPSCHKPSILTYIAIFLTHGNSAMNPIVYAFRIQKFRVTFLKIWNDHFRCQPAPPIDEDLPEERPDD

[2] = target: human A2A adenosine receptor (hA2AAR) (Homo sapiens, UniProt P29274); conditions: at 10 μM; [3H]37; HEK293 cells expressing hA2AAR; ref Tosh et al.[9]; cited from earlier work
[3] = target: T2, human A3 adenosine receptor (hA3AR) (Homo sapiens, UniProt P0DMS8); assay: Radioligand binding at human A3AR; conditions: for Selectivity for hA3AR in comparison to A1 and A2AARs (in words): inhibition curves, Figure 1; for Affinity at the A3AR (in words): binding
T2 sequence (P0DMS8 1-318): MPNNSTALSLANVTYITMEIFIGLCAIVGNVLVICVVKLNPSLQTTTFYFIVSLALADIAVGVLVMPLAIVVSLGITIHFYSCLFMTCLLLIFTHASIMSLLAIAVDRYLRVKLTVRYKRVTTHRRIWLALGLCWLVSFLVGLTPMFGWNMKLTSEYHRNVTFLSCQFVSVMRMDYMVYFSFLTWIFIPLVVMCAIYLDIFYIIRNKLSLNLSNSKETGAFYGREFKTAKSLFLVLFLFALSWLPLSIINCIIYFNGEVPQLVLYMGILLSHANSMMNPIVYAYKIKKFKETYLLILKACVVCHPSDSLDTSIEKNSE

human A3AR = target: T3, human A3AR (Homo sapiens, UniProt P0DMS8); assay: Inhibition of forskolin-stimulated cAMP production in A3AR-expressing CHO cells; format: cell-based; conditions: inhibition of forskolin-stimulated cAMP at 10 μM, NECA as reference standard
T3 sequence (P0DMS8 1-318): T2 sequence (P0DMS8 1-318)

[4] = target: T1, human A1 adenosine receptor (hA1AR); assay: Radioligand binding at human A1AR; conditions: read-out: % inhibition of radioligand binding, A1

Chain of human A2A adenosine receptor (hA2AAR) (P29274 whole entry): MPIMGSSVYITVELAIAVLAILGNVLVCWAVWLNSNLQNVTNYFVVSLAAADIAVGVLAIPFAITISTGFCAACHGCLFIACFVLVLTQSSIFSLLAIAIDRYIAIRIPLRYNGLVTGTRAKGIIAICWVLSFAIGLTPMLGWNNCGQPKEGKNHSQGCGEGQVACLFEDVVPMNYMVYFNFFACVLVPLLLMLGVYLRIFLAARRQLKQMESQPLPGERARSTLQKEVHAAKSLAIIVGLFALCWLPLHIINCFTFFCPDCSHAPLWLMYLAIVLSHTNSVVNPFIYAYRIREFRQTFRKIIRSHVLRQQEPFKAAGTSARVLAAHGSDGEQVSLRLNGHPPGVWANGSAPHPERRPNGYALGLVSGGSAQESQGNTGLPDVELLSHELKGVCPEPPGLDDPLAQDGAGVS

CCN1\C(=C/C=C/C=C/C2=[N+](CCCCCC(=O)NCCNC(=O)CCC#Cc3nc(NCc4cccc(Cl)c4)c4ncn([C@H]5[C@H](O)[C@H](O)[C@]6(C(=O)NC)C[C@H]56)c4n3)c3ccc(S(=O)(=O)[O-])cc3C2(C)C)C(C)(C)c2cc(S(=O)(=O)O)ccc21 [Compound 1]
% inhibition of radioligand binding, A1 [1]: (36±3%)

CNC(=O)[C@@]12C[C@@H]1[C@@H](n1cnc3c(NCc4cccc(Cl)c4)nc(C#CCCC(=O)NCCNC(=O)CCCCC4SCC5NC(=O)NC54)nc31)[C@H](O)[C@@H]2O (some centres unmarked) [Compound 2]
% inhibition of radioligand binding, A2A [2]: (51±2%)
% inhibition of radioligand binding, A1 [1]: (1±1%)

CNC(=O)[C@@]12C[C@@H]1[C@@H](n1cnc3c(NCc4cccc(Cl)c4)nc(C#CCCC(=O)NCCNC(=O)CCCCCNC(=O)CCCCC4SCC5NC(=O)NC54)nc31)[C@H](O)[C@@H]2O (some centres unmarked) [Compound 3]
% inhibition of radioligand binding, A2A [2]: (47±11%)
% inhibition of radioligand binding, A1 [1]: (12±4%)

CNC(=O)[C@@]12C[C@@H]1[C@@H](n1cnc3c(NCc4cccc(Cl)c4)nc(C#CCCCCc4cn(CCNC(C)=O)nn4)nc31)[C@H](O)[C@@H]2O [Compound 15, (1S,2R,3S,4R,5S)-6-(3-Chlorobenzylamino)-(2-(6-(1-(4-acetamidoethyl)-1H-1,2,3-triazol-4-yl)hex-1-ynyl)-9H-purin-9-yl)-2′,3′-dihydroxybicyclo[3.1.0]hexane-1′-carboxylic acid N-methylamide]
Fold more potent in A3AR binding than higher butyl homologue 17 ([3]; compared with 17): 4 fold
Selectivity for hA3AR in comparison to A1 and A2AARs (in words) [3]: highly selective
A3AR agonist efficacy (in words) (human A3AR): highly efficacious agonists

CNC(=O)[C@@]12C[C@@H]1[C@@H](n1cnc3c(NCc4cccc(Cl)c4)nc(C#CCCCCc4cn(CCCCN)nn4)nc31)[C@H](O)[C@@H]2O [Compound 16, (1S,2R,3S,4R,5S)-6-(3-Chlorobenzylamino)-(2-(6-(1-(4-aminobutyl)-1H-1,2,3-triazol-4-yl)hex-1-ynyl)-9H-purin-9-yl)-2′,3′-dihydroxybicyclo[3.1.0]hexane-1′-carboxylic acid N-methylamide]
Affinity at the A3AR (in words) [3]: only moderate affinity

CNC(=O)[C@@]12C[C@@H]1[C@@H](n1cnc3c(NCc4cccc(Cl)c4)nc(C#CCCCCc4cn(C56CC7CC(CC(C7)C5)C6)nn4)nc31)[C@H](O)[C@@H]2O [Compound 18, (1S,2R,3S,4R,5S)-6-(3-Chlorobenzylamino)-(2-(6-(1-(adamantyl)-1H-1,2,3-triazol-4-yl)hex-1-ynyl)-9H-purin-9-yl)-2′,3′-dihydroxybicyclo[3.1.0]hexane-1′-carboxylic acid N-methylamide]
Selectivity for hA3AR in comparison to A1 and A2AARs (in words) [3]: highly selective
A3AR agonist efficacy (in words) (human A3AR): partial agonist

CNC(=O)[C@@]12C[C@@H]1[C@@H](n1cnc3c(NCc4cccc(Cl)c4)nc(C#CCCCCc4cn(Cc5ccc(-n6sccc6=O)cc5)nn4)nc31)[C@H](O)[C@@H]2O [Compound 19]
Affinity at the A3AR (in words) [3]: only moderate affinity

CNC(=O)[C@@]12C[C@@H]1[C@@H](n1cnc3c(NCc4cccc(Cl)c4)nc(C#CCCCCc4cn(CCCCCCNC(=O)c5ccc(-c6c7ccc(=N)c(S(=O)(=O)O)c-7oc7c(S(=O)(=O)O)c(N)ccc67)c(C(=O)O)c5)nn4)nc31)[C@H](O)[C@@H]2O [Compound 23]
inhibition at 10 µM [4]: 0%

CNC(=O)[C@H]1O[C@@H](n2cnc3c(NCc4cccc(I)c4)ncnc32)[C@H](O)[C@@H]1O [IB-MECA, N^6-(3-iodobenzyl)-5′-N-methylcarboxamidoadenosine, reference compound]
A3AR agonist efficacy (in words) (human A3AR): full agonists

— article PMC2818678 (Bioorganic & medicinal chemistry, 2009)
